In patent US20240351988A1, “ARYL HYDROCARBON RECEPTOR MODULATORS AND THEIR USE IN THE TREATMENT OF DISEASES AND DISORDERS” (Allianthera (Suzhou) Biopharmaceutical Co., Ltd., priority 2021, published 2024):

Legend:
[1] = system: AHR-regulated gene CYP1A1 in human monocytic U937 cell line; assay: AHR-regulated CYP1A1 expression in U937 cells (qPCR, kynurenic acid stimulated); format: cell-based; settings: U-937, 200 μM KA, 16 hours, CYP1A1 vs GAPDH, read-out: Cyp ANATAG mode assay: IC50
Method: To evaluate the AHR inhibitory activity of the test compounds, quantitative PCR analysis was used to determine expression level of the AHR-regulated gene CYP1A1 in a human monocytic U937 cell line upon stimulation of 200 μM kynurenic acid (KA) in the absence or presence of AHR inhibitor. U937 cells were seeded at a concentration of 5×10^5 cells/well in 200 μL of growth medium in 96-well cell culture microplates. CYP1A1 expression was induced with 200 μM KA (positive control) in the absence or presence of the test compounds for 16 hours. Human U937 cells were typically incubated with eight different concentrations of test compounds (typical dilution: […], 3.2 nM, 16 nM, 80 nM, 400 nM, 2 μM, 10 μM) and analyzed in duplicate on the same cell culture microplate. After stimulation, the media was removed, the cell RNA was isolated using RNeasy Mini Kit (Qiagen, 74104) and reverse-transcribed to cDNA using PrimeScript RT reagent Kit (Perfect Real Time) (TaKaRa, RR037A). Unstimulated cells were used as the negative control. Taqman probes for human CYP1A1 (Hs01054797_g1) and human GAPDH (Hs02786624_g1) were used to analyze fold expression of CYP1A1 of GAPDH.

[2] = biological target: T1, Human Aryl Hydrocarbon Receptor (AhR) (Homo sapiens, UniProt P35869); assay: AHR antagonist reporter assay in human cell line (INDIGO AhR Reporter Assay System, kynurenic acid activated); format: cell-based; settings: 200 μM kynurenic acid, 24 hours, luciferase; read-out: AhR Reporter Assay KA Antagonist Mode: IC50
T1 construct: purchased INDIGO Bioscience #1B06001-32; host or cells: AhR Reporter Cell (kit's proprietary reporter cells)
T1 sequence (P35869 11-848): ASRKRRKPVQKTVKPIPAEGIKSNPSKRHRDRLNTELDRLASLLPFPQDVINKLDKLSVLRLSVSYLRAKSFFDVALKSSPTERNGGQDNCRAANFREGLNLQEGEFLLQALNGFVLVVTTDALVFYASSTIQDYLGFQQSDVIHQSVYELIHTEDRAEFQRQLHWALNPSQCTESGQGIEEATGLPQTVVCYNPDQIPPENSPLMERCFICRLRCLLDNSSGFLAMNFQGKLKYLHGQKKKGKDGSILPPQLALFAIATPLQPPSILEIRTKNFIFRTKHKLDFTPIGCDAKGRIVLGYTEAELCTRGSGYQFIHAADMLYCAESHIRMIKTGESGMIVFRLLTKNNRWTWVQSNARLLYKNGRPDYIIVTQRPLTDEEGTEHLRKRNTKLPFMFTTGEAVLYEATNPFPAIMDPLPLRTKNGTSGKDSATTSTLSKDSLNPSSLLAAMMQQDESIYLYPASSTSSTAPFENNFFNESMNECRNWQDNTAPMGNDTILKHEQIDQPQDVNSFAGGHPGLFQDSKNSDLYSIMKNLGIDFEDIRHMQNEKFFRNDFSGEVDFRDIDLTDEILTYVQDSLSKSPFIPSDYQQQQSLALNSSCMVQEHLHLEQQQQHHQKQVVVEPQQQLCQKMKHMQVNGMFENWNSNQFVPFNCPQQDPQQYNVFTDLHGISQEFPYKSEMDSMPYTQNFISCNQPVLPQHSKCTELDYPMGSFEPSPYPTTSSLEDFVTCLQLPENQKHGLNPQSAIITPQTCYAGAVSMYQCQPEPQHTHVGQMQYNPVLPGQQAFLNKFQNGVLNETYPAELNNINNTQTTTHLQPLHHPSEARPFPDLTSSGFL
Method: The AhR reporter assay was performed following the protocol of the Human Aryl Hydrocarbon Receptor (AhR) Reporter Assay System (INDIGO Bioscience, #1B06001-32). AhR Reporter Cell was thawed and pre-incubated in Cell Recovery Medium (CRM) for 6 hours. The media was then removed and the cells were incubated with Compound Screening Medium (CSM) supplemented with 200 μM kynurenic acid for 24 hours in the absence (negative control) or presence of increasing concentrations of test compounds (typical dilution: […], 3.2 nM, 16 nM, 80 nM, 400 nM, 2 μM, 10 μM in duplicates). For positive inhibition control, cells activated with 200 μM kynurenic acid were incubated in the presence of literature AHR antagonists; alternatively un-activated cells were used as positive inhibition control. Following 24 hours incubation, the media was removed and Luciferase Detection Reagent (LDR) added. The firefly luciferase activity was quantified using a plate reader. Results were normalized by positive and negative controls.

| Compound | IC50 [1] [nM] | IC50 [2] [nM] |
| --- | --- | --- |
| O=C(N[C@H]1CCCCNC1=O)c1cc(-c2ccc(Cl)cc2)nn(-c2cccc(F)c2)c1=O [28 - *stereo-pure] | < 100 | < 100 |
| Cn1cc(-n2nc(-c3ccc(Cl)cc3)cc(C(=O)N[C@H]3CCCCNC3=O)c2=O)cn1 [59 - *stereo-pure] | < 100 | < 100 |
| CNC(=O)C(C)NC(=O)c1cc(-c2ccc(Cl)cc2)nn(-c2cccc(F)c2)c1=O (stereo not drawn) [Compound 12] | 100 to 400 | 100 to 400 |
| CC(NC(=O)c1cc(-c2ccc(Cl)cc2)nn(-c2cccc(F)c2)c1=O)C(=O)N(C)C (stereo not drawn) [Compound 13] | 100 to 400 | < 100 |
| COCC(C)NC(=O)c1cc(-c2ccc(Cl)cc2)nn(-c2cnn(C)c2)c1=O (stereo not drawn) [Compound 32] | < 100 | < 100 |
| COC[C@H](C)NC(=O)c1cc(-c2ccc(Cl)cc2)nn(-c2cn[nH]c2)c1=O [Compound 62] | < 100 | 100 to 400 |
| COC[C@H](C)NC(=O)c1cc(-c2ccc(C(F)(F)F)cc2)nn(-c2cnn(C)c2)c1=O [Compound 70] | < 100 | < 100 |
| COC[C@H](C)NC(=O)c1cc(-c2ccc(C(=O)N(C)C)cc2)nn(-c2cnn(C)c2)c1=O [Compound 90] | < 100 | < 100 |
| CN(C)C(=O)C(C)(C)NC(=O)c1cc(-c2ccc(Cl)cc2)nn(-c2cnn(C)c2)c1=O [Compound 94] | < 100 | < 100 |
| CNC(=O)C(C)(C)NC(=O)c1cc(-c2ccc(Cl)cc2)nn(-c2cnn(C)c2)c1=O [Compound 95] | < 100 | < 100 |
| COC[C@H](C)NC(=O)c1cc(-c2ccc(Cl)cc2)nn(-c2cccc(F)c2)c1=O [Compound 97] | < 100 | < 100 |
| CNC(=O)[C@H](C)NC(=O)c1cc(-c2ccc(Cl)cc2)nn(-c2cccc(F)c2)c1=O [Compound 98] | < 100 | < 100 |
| C[C@H](NC(=O)c1cc(-c2ccc(Cl)cc2)nn(-c2cccc(F)c2)c1=O)C(=O)N(C)C [Compound 99] | < 100 | < 100 |
| CNC(=O)[C@H](C)NC(=O)c1cc(-c2ccc(Cl)cc2)nn(-c2cnn(C)c2)c1=O [Compound 100] | < 100 | < 100 |
| COC[C@H](C)NC(=O)c1cc(-c2ccc3c(c2)OCC3)nn(-c2cnn(C)c2)c1=O [Compound 112] | 100 to 400 | < 100 |
| COC[C@H](C)NC(=O)c1cc(-c2ccc3cc(OC)ccc3c2)nn(-c2cnn(C)c2)c1=O [Compound 113] | < 100 | < 100 |
| COC[C@H](C)NC(=O)c1cc(-c2ccc3cc(F)ccc3c2)nn(-c2cnn(C)c2)c1=O [Compound 120] | < 100 | < 100 |
| COC[C@H](C)NC(=O)c1cc(-c2ccc3c(C)nn(C)c3c2)nn(-c2cnn(C)c2)c1=O [Compound 123] | < 100 | < 100 |
| COC[C@H](C)NC(=O)c1cc(-c2cnc(-c3ccc(Cl)cc3)nc2)nn(-c2cnn(C)c2)c1=O [Compound 139] | < 100 | < 100 |
| C[C@H](NC(=O)c1cc(-c2ccc(OC(F)(F)F)cc2)nn(-c2cnn(C)c2)c1=O)C(=O)N(C)C [Compound 146] | < 100 | < 100 |
| C[C@H](NC(=O)c1cc(-c2ccc(-c3ccc(Cl)cc3)cc2)nn(-c2cnn(C)c2)c1=O)C(=O)N(C)C [Compound 147] | < 100 | < 100 |
| C[C@@H](CO)NC(=O)c1cc(-c2ccc(-c3ccc(Cl)cc3)cc2)nn(-c2cnn(C)c2)c1=O [Compound 148] | < 100 | < 100 |

| Compound | IC50 [1] [nM] | IC50 [2] [nM] |
| --- | --- | --- |
| C[C@H](NC(=O)c1cc(-c2ccc(C(F)(F)F)cc2)nn(-c2cnn(C)c2)c1=O)C(=O)N(C)C [Compound 150] | < 100 | < 100 |
| COC[C@H](C)NC(=O)c1cc(-c2cc3ccccc3cn2)nn(-c2cnn(C)c2)c1=O [Compound 153] | < 100 | < 100 |
| COC[C@H](C)NC(=O)c1cc(-n2cc(-c3ccc(Cl)cc3)cn2)nn(-c2cnn(C)c2)c1=O [Compound 155] | 100 to 400 | < 100 |
| COC[C@H](C)NC(=O)c1cc(-c2ccc(-c3ccc(Cl)cc3)nc2)nn(-c2cnn(C)c2)c1=O [Compound 156] | < 100 | < 100 |
| C[C@@H](CO)NC(=O)c1cc(-c2ccc(-c3ccc(Cl)cc3)nc2)nn(-c2cnn(C)c2)c1=O [Compound 157] | < 100 | < 100 |
| C[C@@H](CO)NC(=O)c1cc(-n2cc(-c3ccc(Cl)cc3)cn2)nn(-c2cnn(C)c2)c1=O [Compound 161] | < 100 | < 100 |
| C[C@@H](CO)NC(=O)c1cc(-c2cnc(-c3ccc(Cl)cc3)nc2)nn(-c2cnn(C)c2)c1=O [Compound 163] | < 100 | < 100 |
| CN1CCCC[C@H](NC(=O)c2cc(-c3ccc(C(F)(F)F)cc3)nn(-c3cnn(C)c3)c2=O)C1=O [Compound 164] | < 100 | < 100 |
| CN1CCCC[C@H](NC(=O)c2cc(-c3ccc(OC(F)(F)F)cc3)nn(-c3cnn(C)c3)c2=O)C1=O [Compound 165] | < 100 | < 100 |
| CN(C)C(=O)C(C)(C)NC(=O)c1cc(-c2ccc(C(F)(F)F)cc2)nn(-c2cnn(C)c2)c1=O [Compound 167] | < 100 | < 100 |
| CN(C)C(=O)C(C)(C)NC(=O)c1cc(-c2ccc(OC(F)(F)F)cc2)nn(-c2cnn(C)c2)c1=O [Compound 168] | 100 to 400 | < 100 |
| CNC(=O)[C@H](C)NC(=O)c1cc(-c2ccc(C(F)(F)F)cc2)nn(-c2cnn(C)c2)c1=O [Compound 169] | < 100 | < 100 |
| C[C@@H](CO)NC(=O)c1cc(-c2ccc(C(=O)N(C)C)cc2)nn(-c2cccc(F)c2)c1=O [Compound 179] | – | > 400 |
| CNC(=O)[C@H](C)NC(=O)c1cc(-c2ccc(C(=O)N(C)C)cc2)nn(-c2cccc(F)c2)c1=O [Compound 180] | – | < 100 |
| C[C@H](NC(=O)c1cc(-c2cnc(-c3ccc(Cl)cc3)nc2)nn(-c2cnn(C)c2)c1=O)C(=O)N(C)C [Compound 182] | – | < 100 |
| C[C@@H](CO)NC(=O)c1cc(-c2cnc(-c3ccccc3)nc2)nn(-c2cnn(C)c2)c1=O [Compound 187] | – | < 100 |
| C[C@H](NC(=O)c1cc(-n2ncc(-c3ccc(Cl)cc3)n2)nn(-c2cnn(C)c2)c1=O)C(=O)N(C)C [Compound 188] | – | > 400 |
| C[C@H](NC(=O)c1cc(-n2cc(-c3ccc(Cl)cc3)nn2)nn(-c2cnn(C)c2)c1=O)C(=O)N(C)C [Compound 189] | – | > 400 |
| CNC(=O)[C@H](C)NC(=O)c1cc(-n2ncc(-c3ccc(Cl)cc3)n2)nn(-c2cnn(C)c2)c1=O [Compound 190] | – | > 400 |
| C[C@@H](CO)NC(=O)c1cc(-c2ccc(-c3ccc4ncccc4c3)nc2)nn(-c2cnn(C)c2)c1=O [Compound 196] | – | > 400 |
| C[C@@H](CO)NC(=O)c1cc(N2CCN(c3ccccc3F)CC2)nn(-c2cnn(C)c2)c1=O [Compound 209] | – | < 100 |
| C[C@@H](CO)NC(=O)c1cc(N2CCN(c3cccc(F)c3)CC2)nn(-c2cnn(C)c2)c1=O [Compound 210] | – | < 100 |
